We go through 1 molecule from ChEMBL document CHEMBL5113525, “Discovery of the Novel 1H-Pyrrolo[2,3-b]pyridine Derivative as a Potent Type II CDK8 Inhibitor against Colorectal Cancer” (J Med Chem, 2022).

In data set [1] the target is Tyrosine-protein kinase JAK3 (Homo sapiens) (UniProt P52333). In words: Inhibition of human JAK3 at 1 uM relative to control.
Data set [2] concerns the target Mitogen-activated protein kinase 8 (Homo sapiens) (UniProt P45983). In words: Inhibition of human JNK1-alpha-1 at 1 uM relative to control.
Data set [3] concerns the target Serine/threonine-protein kinase pim-3 (Homo sapiens) (UniProt Q86V86). In words: Inhibition of human PIM3 at 1 uM relative to control.
A short description of data set [4]: Clearance in Sprague-Dawley rat at 10 mg/kg, po measured upto 12 hrs by LC-MS/MS analysis. Type of data set: ADME, organism-based. As to conditions: in vivo.
The nature of data set [5]: Tmax in Sprague-Dawley rat at 10 mg/kg, po measured upto 12 hrs by LC-MS/MS analysis. Type of data set: ADME, organism-based. To be noted: in vivo.
Data set [6] has as its target Aurora kinase B (Homo sapiens) (UniProt Q96GD4). The data set is described as follows: Inhibition of human Aurora B at 1 uM relative to control.
In data set [7] the target is Catenin beta-1 (Homo sapiens) (UniProt P35222). In words: Inhibition of beta-catenin in human HCT-116 cells assessed as accumulation in cytoplasm incubated for 24 hrs by DAPI staining based immunofluorescence assay. Type of data set: cell-based.
In data set [8] the target is Mitogen-activated protein kinase kinase kinase 9 (Homo sapiens) (UniProt P80192). In words: Inhibition of human MLK1 at 1 uM relative to control.
The target in data set [9] is Tyrosine-protein kinase Mer (Homo sapiens) (UniProt Q12866). The data set is described as follows: Inhibition of human MER at 1 uM relative to control.
For data set [10], the target named is Serine/threonine-protein kinase mTOR (Homo sapiens) (UniProt P42345). The data set is described as follows: Inhibition of human MTOR at 1 uM relative to control.
Data set [11] deals with Epithelial discoidin domain-containing receptor 1 (Homo sapiens) (UniProt Q08345). The data set is described as follows: Inhibition of human DDR1 at 1 uM relative to control.
Epithelial discoidin domain-containing receptor 1 (Homo sapiens), sequence (Q08345 whole entry, the tested form may be a part): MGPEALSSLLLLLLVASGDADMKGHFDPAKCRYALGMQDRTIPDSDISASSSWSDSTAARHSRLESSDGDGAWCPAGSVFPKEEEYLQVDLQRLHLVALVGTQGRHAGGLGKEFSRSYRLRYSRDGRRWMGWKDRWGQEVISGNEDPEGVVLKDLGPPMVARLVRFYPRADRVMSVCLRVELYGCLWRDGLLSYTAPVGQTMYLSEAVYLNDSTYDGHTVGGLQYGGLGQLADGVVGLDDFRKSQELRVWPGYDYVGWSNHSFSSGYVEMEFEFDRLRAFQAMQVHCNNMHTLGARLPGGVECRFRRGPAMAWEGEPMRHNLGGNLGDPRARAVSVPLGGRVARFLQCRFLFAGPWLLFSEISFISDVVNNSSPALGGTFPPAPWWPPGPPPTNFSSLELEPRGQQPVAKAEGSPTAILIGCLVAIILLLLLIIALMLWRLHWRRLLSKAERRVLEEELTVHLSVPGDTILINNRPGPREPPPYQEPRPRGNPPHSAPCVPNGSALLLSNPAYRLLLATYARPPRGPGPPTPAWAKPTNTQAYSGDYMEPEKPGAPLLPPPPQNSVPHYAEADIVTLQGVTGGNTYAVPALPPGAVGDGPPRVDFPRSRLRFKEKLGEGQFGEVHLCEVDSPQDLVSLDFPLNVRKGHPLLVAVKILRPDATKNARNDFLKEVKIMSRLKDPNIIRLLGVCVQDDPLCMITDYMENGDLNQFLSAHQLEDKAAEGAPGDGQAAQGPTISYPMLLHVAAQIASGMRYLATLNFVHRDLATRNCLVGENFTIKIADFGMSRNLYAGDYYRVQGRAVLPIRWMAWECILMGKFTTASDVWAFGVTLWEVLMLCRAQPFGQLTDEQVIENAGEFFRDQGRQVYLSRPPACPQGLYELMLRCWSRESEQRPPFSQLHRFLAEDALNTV
In data set [12] the target is Fibroblast growth factor receptor 2 (Homo sapiens) (UniProt P21802). In words: Inhibition of human FGFR2 at 1 uM relative to control.
Fibroblast growth factor receptor 2 (Homo sapiens), sequence (P21802 22-821 limits assumed): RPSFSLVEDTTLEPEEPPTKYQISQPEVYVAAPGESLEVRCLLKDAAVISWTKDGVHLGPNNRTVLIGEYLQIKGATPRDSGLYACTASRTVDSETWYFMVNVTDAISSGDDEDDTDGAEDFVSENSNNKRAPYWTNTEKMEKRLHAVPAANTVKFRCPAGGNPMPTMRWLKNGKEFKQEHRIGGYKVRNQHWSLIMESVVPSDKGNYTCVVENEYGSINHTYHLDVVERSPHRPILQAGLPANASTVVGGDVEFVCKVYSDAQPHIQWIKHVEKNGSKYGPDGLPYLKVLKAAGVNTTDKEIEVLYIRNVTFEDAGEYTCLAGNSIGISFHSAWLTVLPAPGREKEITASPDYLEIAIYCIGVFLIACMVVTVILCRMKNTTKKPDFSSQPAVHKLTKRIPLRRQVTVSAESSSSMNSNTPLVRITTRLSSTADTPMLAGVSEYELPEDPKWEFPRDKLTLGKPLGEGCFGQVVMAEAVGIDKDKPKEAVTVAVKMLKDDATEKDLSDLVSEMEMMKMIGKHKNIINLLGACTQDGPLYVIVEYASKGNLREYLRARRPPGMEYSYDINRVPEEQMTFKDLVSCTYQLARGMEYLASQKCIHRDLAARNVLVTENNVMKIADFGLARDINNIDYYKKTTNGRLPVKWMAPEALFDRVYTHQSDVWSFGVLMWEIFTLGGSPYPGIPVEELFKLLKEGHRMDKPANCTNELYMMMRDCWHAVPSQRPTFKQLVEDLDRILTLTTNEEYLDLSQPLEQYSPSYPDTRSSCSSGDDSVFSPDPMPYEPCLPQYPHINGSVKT
Data set [13] concerns the target Serine/threonine-protein kinase pim-1 (Homo sapiens) (UniProt P11309). In words: Inhibition of human PIM1 at 1 uM relative to control.
The target of data set [14] is 3-phosphoinositide-dependent protein kinase 1 (Homo sapiens) (UniProt O15530). In words: Inhibition of human PDK1 at 1 uM relative to control.
Data set [15] has as its target Tyrosine-protein kinase JAK1 (Homo sapiens) (UniProt P23458). The data set is described as follows: Inhibition of human JAK1 at 1 uM relative to control.
The target of data set [16] is Glycogen synthase kinase-3 alpha (Homo sapiens) (UniProt P49840). The data set is described as follows: Inhibition of human GSK3A at 1 uM relative to control.
Glycogen synthase kinase-3 alpha (Homo sapiens), sequence (P49840 2-483 limits assumed): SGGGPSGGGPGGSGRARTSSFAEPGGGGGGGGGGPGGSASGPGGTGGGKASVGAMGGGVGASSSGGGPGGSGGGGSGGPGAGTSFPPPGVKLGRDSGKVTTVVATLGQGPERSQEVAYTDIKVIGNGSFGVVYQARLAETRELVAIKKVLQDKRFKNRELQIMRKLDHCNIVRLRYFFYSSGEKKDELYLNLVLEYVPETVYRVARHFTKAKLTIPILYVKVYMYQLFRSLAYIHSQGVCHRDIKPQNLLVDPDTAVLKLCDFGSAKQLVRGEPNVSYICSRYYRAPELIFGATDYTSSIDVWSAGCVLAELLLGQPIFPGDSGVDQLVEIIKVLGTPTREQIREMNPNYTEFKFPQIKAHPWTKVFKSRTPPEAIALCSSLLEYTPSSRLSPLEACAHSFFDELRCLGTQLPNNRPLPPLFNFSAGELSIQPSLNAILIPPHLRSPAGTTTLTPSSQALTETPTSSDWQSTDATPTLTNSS
In data set [17] the target is Fibroblast growth factor receptor 4 (Homo sapiens) (UniProt P22455). In words: Inhibition of human FGFR4 at 1 uM relative to control.
Fibroblast growth factor receptor 4 (Homo sapiens), sequence (P22455 22-802 limits assumed): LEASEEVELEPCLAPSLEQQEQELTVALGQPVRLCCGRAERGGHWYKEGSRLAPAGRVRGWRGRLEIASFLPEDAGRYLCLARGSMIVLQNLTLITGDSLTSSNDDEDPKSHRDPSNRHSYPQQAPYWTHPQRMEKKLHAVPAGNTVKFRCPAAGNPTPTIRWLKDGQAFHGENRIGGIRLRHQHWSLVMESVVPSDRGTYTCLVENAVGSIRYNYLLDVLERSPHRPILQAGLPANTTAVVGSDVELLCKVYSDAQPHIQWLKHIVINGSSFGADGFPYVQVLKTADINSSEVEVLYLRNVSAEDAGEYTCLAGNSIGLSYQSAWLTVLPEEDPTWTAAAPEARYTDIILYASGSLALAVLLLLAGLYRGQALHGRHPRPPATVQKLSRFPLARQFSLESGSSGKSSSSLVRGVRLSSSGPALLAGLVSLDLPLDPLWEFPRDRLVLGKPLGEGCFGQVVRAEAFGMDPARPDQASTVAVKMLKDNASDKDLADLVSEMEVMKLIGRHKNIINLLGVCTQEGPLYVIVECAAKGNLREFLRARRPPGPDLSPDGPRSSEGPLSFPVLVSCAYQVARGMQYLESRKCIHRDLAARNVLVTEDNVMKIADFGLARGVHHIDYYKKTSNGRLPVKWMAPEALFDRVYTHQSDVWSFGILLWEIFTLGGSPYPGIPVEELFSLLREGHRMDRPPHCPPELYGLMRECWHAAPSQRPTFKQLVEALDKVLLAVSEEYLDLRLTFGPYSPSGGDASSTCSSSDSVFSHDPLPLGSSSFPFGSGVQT
Data set [18] addresses High affinity nerve growth factor receptor (Homo sapiens) (UniProt P04629). The data set is described as follows: Inhibition of human TRKA at 1 uM relative to control.

The source made the active and inactive calls. The calls are words filed in the database; no cut-off is given here.

Aurora kinase B (Homo sapiens), sequence (Q96GD4 whole entry): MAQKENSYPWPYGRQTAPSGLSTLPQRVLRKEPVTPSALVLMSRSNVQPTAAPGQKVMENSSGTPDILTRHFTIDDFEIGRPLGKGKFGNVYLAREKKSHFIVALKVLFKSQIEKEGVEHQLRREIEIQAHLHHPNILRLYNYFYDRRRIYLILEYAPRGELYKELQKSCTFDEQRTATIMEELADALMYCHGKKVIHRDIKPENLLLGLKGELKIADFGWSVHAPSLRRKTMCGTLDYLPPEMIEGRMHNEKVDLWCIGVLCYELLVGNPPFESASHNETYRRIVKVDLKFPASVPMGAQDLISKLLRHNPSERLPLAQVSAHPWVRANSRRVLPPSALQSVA
Tyrosine-protein kinase JAK3 (Homo sapiens), sequence (P52333 whole entry): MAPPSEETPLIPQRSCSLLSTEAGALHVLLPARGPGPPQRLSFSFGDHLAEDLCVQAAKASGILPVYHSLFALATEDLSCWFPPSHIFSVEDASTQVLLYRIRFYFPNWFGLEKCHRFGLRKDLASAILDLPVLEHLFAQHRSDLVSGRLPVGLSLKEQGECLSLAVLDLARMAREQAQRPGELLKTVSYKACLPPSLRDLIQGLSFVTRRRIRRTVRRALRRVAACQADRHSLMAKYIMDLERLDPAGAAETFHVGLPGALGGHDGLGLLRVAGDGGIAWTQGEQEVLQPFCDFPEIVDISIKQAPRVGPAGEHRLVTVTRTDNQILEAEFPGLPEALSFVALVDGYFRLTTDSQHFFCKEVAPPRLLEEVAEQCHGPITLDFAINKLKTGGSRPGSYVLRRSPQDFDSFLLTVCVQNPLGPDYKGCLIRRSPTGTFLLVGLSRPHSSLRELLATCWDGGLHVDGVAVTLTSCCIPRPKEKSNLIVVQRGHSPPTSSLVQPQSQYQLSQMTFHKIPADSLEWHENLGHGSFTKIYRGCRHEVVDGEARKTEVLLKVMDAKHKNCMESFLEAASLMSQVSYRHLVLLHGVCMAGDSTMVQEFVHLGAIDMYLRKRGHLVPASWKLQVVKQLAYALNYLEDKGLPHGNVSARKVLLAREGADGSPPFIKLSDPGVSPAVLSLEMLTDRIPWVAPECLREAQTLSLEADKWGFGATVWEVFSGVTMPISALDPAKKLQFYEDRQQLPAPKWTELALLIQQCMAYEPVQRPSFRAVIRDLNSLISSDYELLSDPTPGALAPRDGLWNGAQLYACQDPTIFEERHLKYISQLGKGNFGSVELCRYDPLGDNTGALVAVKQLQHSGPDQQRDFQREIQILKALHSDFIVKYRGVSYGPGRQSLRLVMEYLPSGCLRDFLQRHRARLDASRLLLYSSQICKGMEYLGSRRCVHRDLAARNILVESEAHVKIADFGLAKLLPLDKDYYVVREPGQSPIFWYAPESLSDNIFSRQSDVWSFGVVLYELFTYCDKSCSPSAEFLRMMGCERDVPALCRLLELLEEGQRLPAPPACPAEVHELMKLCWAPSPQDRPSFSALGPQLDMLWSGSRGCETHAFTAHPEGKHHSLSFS
Mitogen-activated protein kinase 8 (Homo sapiens), sequence (P45983 whole entry): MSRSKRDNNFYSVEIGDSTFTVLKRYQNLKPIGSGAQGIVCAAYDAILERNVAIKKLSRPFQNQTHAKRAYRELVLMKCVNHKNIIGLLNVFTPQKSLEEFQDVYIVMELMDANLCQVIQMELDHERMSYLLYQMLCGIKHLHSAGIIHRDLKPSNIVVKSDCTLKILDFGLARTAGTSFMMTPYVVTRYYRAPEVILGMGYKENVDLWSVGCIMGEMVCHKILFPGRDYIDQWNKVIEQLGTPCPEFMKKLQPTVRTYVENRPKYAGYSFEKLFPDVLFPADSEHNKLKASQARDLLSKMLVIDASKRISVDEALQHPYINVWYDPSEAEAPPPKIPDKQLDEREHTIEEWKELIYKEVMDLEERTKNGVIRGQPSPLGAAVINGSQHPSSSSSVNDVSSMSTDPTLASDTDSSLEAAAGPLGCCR

`Cc1ccc(NC(=O)CCc2cccc(-c3cnc4[nH]ccc4c3)c2)cc1C(F)(F)F`: the inhibition in data set [1] was 10%; in data set [2], 2%; in [3], 4%; in [6], 43%; in data set [8], 7%; in data set [9] it was 30%. Besides, the inhibition came out at 5% in [10]; 36% in data set [11]; 0% in [12]; 0% in data set [13]; 0% in [14]; 9% in [15]. In addition, the figures for the inhibition in data set [16], in data set [17] and in data set [18] were 6%, 0% and 25%, respectively. Moreover, the CL/F in [4] is 154 mL/min/kg. Also, the Tmax in data set [5] was determined as 45 min. Moreover, the inhibition result in [7] was “Active”.

What is called inhibition is the relative decrease from the control value, in per cent. A word on the CL/F: it is the apparent clearance, not corrected for the fraction that reaches the circulation. As usually defined, the Tmax is the time at which the peak concentration occurs.
